Data: patent US8362031B2, “Lonidamine analogues and treatment of polycystic kidney disease” (University of Kansas, priority 2004, dated 2013)

Tested on: Salmonella Typhimurium TA 100
Assay: Ames test for mutagenicity (plate assay, colony count)
Conditions: 48 hours at 37° C.; for Ames test (+)S9 0.1 mg/pl. / Ames test (+)S9 1 mg/pl. / Ames test (+)S9 10 mg/pl.: (+)S9 mix; for Ames test (−)S9 0.1 mg/pl. / Ames test (−)S9 1 mg/pl. / Ames test (−)S9 10 mg/pl.: (−)S9 mix

Row | SMILES | Ames test (+)S9 0.1 mg/pl. | Ames test (+)S9 1 mg/pl. | Ames test (+)S9 10 mg/pl. | Ames test (−)S9 0.1 mg/pl. | Ames test (−)S9 1 mg/pl. | Ames test (−)S9 10 mg/pl.
1 | O=C(O)/C=C/c1nn(Cc2ccc(Cl)cc2Cl)c2ncccc12 [RC-MC-65, 3-[1-(2,4-dichlorobenzyl)-1H-pyrazolo[3,4-b]pyridine-3-yl]-acrylic acid] | Pass | Fail | Fail | Pass | Fail | Fail
2 | O=C(O)c1nn(Cc2ccc(Cl)cc2Cl)c2cc(C(F)(F)F)cnc12 [JWS-1-230, 1-(2,4-dichlorobenzyl)-6-trifluoromethyl-1H-pyrazolo[4,3-b]pyridine-3-carboxylic acid] | Pass | Pass | Pass | Pass | Pass | Pass
3 | NNC(=O)c1nn(Cc2ccc(Cl)cc2Cl)c2cccnc12 [JWS-1-112, 1-(2,4-dichlorobenzyl)-1H-pyrazolo[4,3-b]pyridine-3-carboxylic acid hydrazide] | Pass | Pass | Pass | Pass | Fail | Fail
4 | O=C(O)/C=C/c1nn(Cc2ccc(F)cc2F)c2cc(C(F)(F)F)ccc12 [JWS-1-294, 3-[1-(2,4-difluorobenzyl)-6-trifluoromethyl-1H-indazol-3-yl]-acrylic acid] | Pass | Pass | Pass | Pass | Pass | Pass
5 | NNC(=O)c1nn(Cc2ccc(F)cc2F)c2ccc(C(F)(F)F)cc12 [JWS-1-302, 1-(2,4-difluorobenzyl)-5-trifluoromethyl-1H-indazole-3-carboxylic acid hydrazide] | Pass | Pass | Fail | Pass | Pass | Pass
6 | O=C(O)c1nn(Cc2ccc(Cl)cc2Cl)c2ccc(C(F)(F)F)cc12 [JWS-1-260, 1-(2,4-dichlorobenzyl)-5-trifluoromethyl-1H-indazole-3-carboxylic acid] | Pass | Pass | Pass | Pass | Pass | Pass
7 | O=C(O)/C=C/c1nn(Cc2ccc(F)cc2F)c2ccc(C(F)(F)F)cc12 [JWS-2-10, 3-[1-(2,4-difluorobenzyl)-5-trifluoromethyl-1H-indazol-3-yl]-acrylic acid] | Pass | Pass | Pass | Pass | Pass | Pass
8 | O=C(O)c1nn(Cc2ccc(F)cc2F)c2cc(Cl)ccc12 [JWS-1-284, 1-(2,4-difluorobenzyl)-6-chloro-1H-indazole-3-carboxylic acid] | Pass | Fail | Fail | Pass | Fail | Fail
9 | O=C(O)c1nn(Cc2ccc(Cl)cc2Cl)c2cnccc12 [JWS-1-132, 1-(2,4-dichlorobenzyl)-1H-pyrazolo[3,4-c]pyridine-3-carboxylic acid] | Pass | Pass | Pass | Pass | Pass | Pass
10 | NNC(=O)/C=C/c1nn(Cc2ccc(Cl)cc2Cl)c2cc(C(F)(F)F)ccc12 [RC-MC-205, 3-[1-(2,4-dichlorobenzyl)-6-trifluoromethyl-1H-indazol-3-yl]-acrylic acid hydrazide] | Pass | Fail | Fail | Pass | Fail | Mar-
11 | COC(=O)c1nn(Cc2ccc(F)cc2F)c2ccc(C(F)(F)F)cc12 [JWS-1-300, 1-(2,4-difluorobenzyl)-5-trifluoromethyl-1H-indazole-3-carboxylic acid methyl ester] | Pass | Fail | Fail | Pass | Fail | Fail
12 | COC(=O)C=Cc1nn(Cc2ccc(Cl)cc2Cl)c2cc(C(F)(F)F)ccc12 [RC-MC-200] | Pass | Fail | Fail | Pass | Pass | Pass
13 | O=C(O)c1nn(Cc2ccc(F)cc2F)c2ccc(C(F)(F)F)cc12 [JWS-2-1, 1-(2,4-difluorobenzyl)-5-trifluoromethyl-1H-indazole-3-carboxylic acid] | Pass | Pass | Pass | Pass | Mar- | Fail
14 | O=C(O)/C=C/c1nn(Cc2ccc(F)cc2F)c2cc(Cl)ccc12 [JWS-1-298, 3-[1-(2,4-difluorobenzyl)-6-chloro-1H-indazol-3-yl]-acrylic acid] | Pass | Fail | Fail | Pass | Fail | Fail
15 | O=C(O)c1nn(Cc2ccc(F)cc2Cl)c2cc(Cl)ccc12 [JWS-2-20, 1-(2-chloro-4-fluorobenzyl)-6-chloro-1H-indazole-3-carboxylic acid] | Pass | Fail | Fail | Mar- | Fail | Fail
16 | O=C(O)/C=C/c1nn(Cc2ccc(F)cc2Cl)c2cc(C(F)(F)F)ccc12 [JWS-2-40, 3-[1-(2-chloro, 4-fluorobenzyl)-6-trifluoromethyl-1H-indazol-3-yl]-acrylic acid] | Pass | Pass | Pass | Pass | Pass | Mar-
17 | NNC(=O)c1nn(Cc2ccc(Cl)cc2Cl)c2cc(C(F)(F)F)cnc12 [JWS-1-232, 1-(2,4-dichlorobenzyl)-6-trifluoromethyl-1H-pyrazolo[4,3-b]pyridine-3-carboxylic acid hydrazide] | Pass | Pass | Pass | Pass | Pass | Pass
18 | O=C(O)/C=C/c1nn(Cc2ccc(Cl)cc2Cl)c2ccc(C(F)(F)F)cc12 [JWS-1-268, 3-[1-(2,4-dichlorobenzyl)-5-trifluoromethyl-1H-indazol-3-yl]-acrylic acid] | Pass | Pass | Pass | Pass | Pass | Pass
19 | NNC(=O)c1nn(Cc2ccc(Cl)cc2Cl)c2ccc(C(F)(F)F)cc12 [JWS-1-258, 1-(2,4-dichlorobenzyl)-5-trifluoromethyl-1H-indazole-3-carboxylic acid hydrazide] | Pass | Pass | Pass | Pass | Pass | Pass
20 | NNC(=O)c1nn(Cc2ccc(Cl)cc2Cl)c2cc(Cl)ccc12 [DD-MC-II, 6-chloro-1-(2,4-dichlorobenzyl)-1H-indazole-3-carboxylic acid hydrazide] | Pass | Pass | Pass | Pass | Pass | Pass
21 | COC(=O)c1nn(Cc2ccc(F)cc2Cl)c2cc(Cl)ccc12 [JWS-2-18, 1-(2-chloro-4-fluorobenzyl)-6-chloro-1H-indazole-3-carboxylic acid methyl ester] | Pass | Fail | Fail | Pass | Pass | Mar-
22 | O=C(O)c1nn(Cc2ccc(F)cc2Cl)c2cc(C(F)(F)F)ccc12 [JWS-2-14, 1-(2-chloro-4-fluorobenzyl)-6-trifluoromethyl-1H-indazole-3-carboxylic acid] | Pass | Pass | Fail | Pass | Fail | Fail
23 | COC(=O)c1nn(Cc2ccc(Cl)cc2Cl)c2cc(C(F)(F)F)cnc12 [JWS-1-228, 1-(2,4-dichlorobenzyl)-6-trifluoromethyl-1H-pyrazolo[4,3-b]pyridine-3-carboxylic acid methyl ester] | Pass | Pass | Pass | Pass | Pass | Pass
24 | O=C(O)/C=C/c1nn(Cc2ccc(F)cc2Cl)c2cc(Cl)ccc12 [JWS-2-36, 3-[1-(2-chloro, 4-fluorobenzyl)-6-chloro-1H-indazol-3-yl]-acrylic acid] | Pass | Pass | Pass | Pass | Fail | Pass
